# Results as given in publication PMC6222781, “Structural Optimization of Foldamer-Dendrimer Conjugates as Multivalent Agents against the Toxic Effects of Amyloid Beta Oligomers” (Molecules : A Journal of Synthetic Chemistry and Natural …, 2018).
# Target: T1, Aβ oligomers (Homo sapiens, UniProt P05067)
# T1 construct: Ser^26 depsipeptide iso-Aβ (1–42) was used; made in house; host or cells: chemical peptide synthesis (no expression host)
# Assay: Isothermal titration calorimetry (ITC) binding to Aβ oligomers
# Conditions: Table 2, PBS pH 7.4, 285 K; for Kd: Aβ 100 µM in cell, ligand 250 µM in syringe, two independent site model; for ΔG, first binding stage / ΔH, first binding stage / ΔG, second binding stage / ΔH, second binding stage: ITC
# Protocol: The binding affinities of 2b–2i to Aβ oligomers were tested in ITC experiments.
# In this work, Ser^26 depsipeptide iso-Aβ (1–42) was used, which was synthesized and purified as described previously. The lyophilized iso-Aβ (1–42) was dissolved in MilliQ water to a concentration of 1 mg mL^−1, sonicated for 3 min and the pH was set to 7.0 to initiate an O to N acyl migration, whereby the native sequence can be readily formed. The sample was incubated at room temperature for 10 min. Then the pH was set to 11 and the sample was kept at room temperature for additional 2 h. After the incubation, the Aβ stock solution was aliquoted and stored at −20 °C until use. To obtain Aβ oligomers, the 1 mg mL^−1 aliquot was diluted to a final concentration of 50 μM with 26.67 mM PBS and the pH was set to 7.4 with 1 M HCl. The sample was incubated at 37 °C for 3 h.
# Isothermal calorimetric titrations were performed with a Microcal VP-ITC microcalorimeter in pH 7.4 PBS buffer solution. In individual titrations, 10 µL portions of the ligand containing solution were repeatedly injected from the computer-controlled 300-µL microsyringe at intervals of 300 s into the Aβ oligomer solution prepared in the same buffer as the ligand. All measurements were carried out at 285 K. The Aβ concentration in the cell was 100 µM and the total ligand concentration was 250 µM in the syringe and the titration was stopped when the precipitation of the Aβ aggregates became excessive. Control experiments were performed by injecting the ligand into a cell containing buffer with no target, and the heats of dilution were subtracted from those measured in the presence of Aβ. The experimental data were fitted to the two independent site binding models by using a nonlinear least-squares procedure, with ΔHb, ΔHb’, Kd, Kd’ ([…]), n and n’ (number of binding sites for monomer), as adjustable parameters.
# T1 sequence (P05067 672-713 limits assumed): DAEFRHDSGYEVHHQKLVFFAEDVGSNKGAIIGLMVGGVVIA
SMILES,Kd (first binding stage),Kd (second binding stage),"ΔG, first binding stage (first binding stage)","ΔH, first binding stage (first binding stage)","ΔG, second binding stage (second binding stage)","ΔH, second binding stage (second binding stage)"
N=C(N)NCCC[C@@H](CC(=O)N[C@H]1CCCC[C@@H]1C(=O)N[C@H]1CCCC[C@@H]1C(=O)N[C@@H](CC(=O)O)CC(=O)N[C@H]1CCCC[C@@H]1C(=O)NCC(=O)NCC(=O)N[C@@H](CSC1CC(=O)N(CCC(=O)NCCCC[C@H](NC(=O)CCN2C(=O)CC(SC[C@H](NC(=O)CNC(=O)CNC(=O)[C@H]3CCCC[C@@H]3NC(=O)C[C@H](CC(=O)O)NC(=O)[C@H]3CCCC[C@@H]3NC(=O)[C@H]3CCCC[C@@H]3NC(=O)C[C@H](CCCNC(=N)N)NC(=O)[C@H]3CCCC[C@@H]3N)C(N)=O)C2=O)C(=O)NCCCC[C@H](NC(=O)[C@H](CCCCNC(=O)CCN2C(=O)CC(SC[C@H](NC(=O)CNC(=O)CNC(=O)[C@H]3CCCC[C@@H]3NC(=O)C[C@H](CC(=O)O)NC(=O)[C@H]3CCCC[C@@H]3NC(=O)[C@H]3CCCC[C@@H]3NC(=O)C[C@H](CCCNC(=N)N)NC(=O)[C@H]3CCCC[C@@H]3N)C(N)=O)C2=O)NC(=O)CCN2C(=O)CC(SC[C@H](NC(=O)CNC(=O)CNC(=O)[C@H]3CCCC[C@@H]3NC(=O)C[C@H](CC(=O)O)NC(=O)[C@H]3CCCC[C@@H]3NC(=O)[C@H]3CCCC[C@@H]3NC(=O)C[C@H](CCCNC(=N)N)NC(=O)[C@H]3CCCC[C@@H]3N)C(N)=O)C2=O)C(=O)NCC(N)=O)C1=O)C(N)=O)NC(=O)[C@H]1CCCC[C@@H]1N (stereo partly drawn) [Compound 7],16.2 ± 8.9 nM,128 ± 56.7 nM,–,–,–,–
N=C(N)NCCC[C@@H](CC(=O)N[C@H]1CCCC[C@@H]1C(=O)N[C@H]1CCCC[C@@H]1C(=O)N[C@@H](CC(=O)O)CC(=O)N[C@H]1CCCC[C@@H]1C(=O)NCC(=O)NCC(=O)N[C@@H](CSC1CC(=O)N(CCC(=O)NCCNC(=O)CCN(CCNC(=O)CCN(CCC(=O)NCCN(CCC(=O)NCCNC(=O)CCN2C(=O)CC(SC[C@H](NC(=O)CNC(=O)CNC(=O)[C@H]3CCCC[C@@H]3NC(=O)C[C@H](CC(=O)O)NC(=O)[C@H]3CCCC[C@@H]3NC(=O)[C@H]3CCCC[C@@H]3NC(=O)C[C@H](CCCNC(=N)N)NC(=O)[C@H]3CCCC[C@@H]3N)C(N)=O)C2=O)CCC(=O)NCCNC(=O)CCN2C(=O)CC(SC[C@H](NC(=O)CNC(=O)CNC(=O)[C@H]3CCCC[C@@H]3NC(=O)C[C@H](CC(=O)O)NC(=O)[C@H]3CCCC[C@@H]3NC(=O)[C@H]3CCCC[C@@H]3NC(=O)C[C@H](CCCNC(=N)N)NC(=O)[C@H]3CCCC[C@@H]3N)C(N)=O)C2=O)CCN(CCC(=O)NCCN(CCC(=O)NCCNC(=O)CCN2C(=O)CC(SC[C@H](NC(=O)CNC(=O)CNC(=O)[C@H]3CCCC[C@@H]3NC(=O)C[C@H](CC(=O)O)NC(=O)[C@H]3CCCC[C@@H]3NC(=O)[C@H]3CCCC[C@@H]3NC(=O)C[C@H](CCCNC(=N)N)NC(=O)[C@H]3CCCC[C@@H]3N)C(N)=O)C2=O)CCC(=O)NCCNC(=O)CCN2C(=O)CC(SC[C@H](NC(=O)CNC(=O)CNC(=O)[C@H]3CCCC[C@@H]3NC(=O)C[C@H](CC(=O)O)NC(=O)[C@H]3CCCC[C@@H]3NC(=O)[C@H]3CCCC[C@@H]3NC(=O)C[C@H](CCCNC(=N)N)NC(=O)[C@H]3CCCC[C@@H]3N)C(N)=O)C2=O)CCC(=O)NCCN(CCC(=O)NCCNC(=O)CCN2C(=O)CC(SC[C@H](NC(=O)CNC(=O)CNC(=O)[C@H]3CCCC[C@@H]3NC(=O)C[C@H](CC(=O)O)NC(=O)[C@H]3CCCC[C@@H]3NC(=O)[C@H]3CCCC[C@@H]3NC(=O)C[C@H](CCCNC(=N)N)NC(=O)[C@H]3CCCC[C@@H]3N)C(N)=O)C2=O)CCC(=O)NCCNC(=O)CCN2C(=O)CC(SC[C@H](NC(=O)CNC(=O)CNC(=O)[C@H]3CCCC[C@@H]3NC(=O)C[C@H](CC(=O)O)NC(=O)[C@H]3CCCC[C@@H]3NC(=O)[C@H]3CCCC[C@@H]3NC(=O)C[C@H](CCCNC(=N)N)NC(=O)[C@H]3CCCC[C@@H]3N)C(N)=O)C2=O)CCC(=O)NCCNC(=O)CCN2C(=O)CC(SC[C@H](NC(=O)CNC(=O)CNC(=O)[C@H]3CCCC[C@@H]3NC(=O)C[C@H](CC(=O)O)NC(=O)[C@H]3CCCC[C@@H]3NC(=O)[C@H]3CCCC[C@@H]3NC(=O)C[C@H](CCCNC(=N)N)NC(=O)[C@H]3CCCC[C@@H]3N)C(N)=O)C2=O)C1=O)C(N)=O)NC(=O)[C@H]1CCCC[C@@H]1N (stereo partly drawn) [Compound 6],69 ± 12 nM,193 ± 30.5 nM,–,–,–,–
N=C(N)NCCC[C@@H](CC(=O)N[C@H]1CCCC[C@@H]1C(=O)N[C@H]1CCCC[C@@H]1C(=O)N[C@@H](CC(=O)O)CC(=O)N[C@H]1CCCC[C@@H]1C(=O)NCC(=O)NCC(=O)N[C@@H](CSSC[C@H](NC(=O)CNC(=O)CNC(=O)[C@H]1CCCC[C@@H]1NC(=O)C[C@H](CC(=O)O)NC(=O)[C@H]1CCCC[C@@H]1NC(=O)[C@H]1CCCC[C@@H]1NC(=O)C[C@H](CCCNC(=N)N)NC(=O)[C@H]1CCCC[C@@H]1NC(=O)CCC(=O)NCCOCCOCCNC(=O)[C@H]1CCCC[C@@H]1NC(=O)C[C@H](CC(=O)O)NC(=O)[C@H]1CCCC[C@@H]1NC(=O)[C@H]1CCCC[C@@H]1NC(=O)C[C@H](CCCNC(=N)N)NC(=O)[C@H]1CCCC[C@@H]1N)C(N)=O)C(N)=O)NC(=O)[C@H]1CCCC[C@@H]1NC(=O)CCC(=O)NCCOCCOCCNC(=O)[C@H]1CCCC[C@@H]1NC(=O)C[C@H](CC(=O)O)NC(=O)[C@H]1CCCC[C@@H]1NC(=O)[C@H]1CCCC[C@@H]1NC(=O)C[C@H](CCCNC(=N)N)NC(=O)[C@H]1CCCC[C@@H]1N [Compound 9],–,–,-9.83 kcal/M,6.01 kcal/M,-8.48 kcal/M,1.18 kcal/M
CC(=O)N[C@@H](CCCCNC(=O)CCN1C(=O)CC(SC[C@H](NC(=O)CNC(=O)CNC(=O)[C@H]2CCCC[C@@H]2NC(=O)C[C@H](CC(=O)O)NC(=O)[C@H]2CCCC[C@@H]2NC(=O)[C@H]2CCCC[C@@H]2NC(=O)C[C@H](CCCNC(=N)N)NC(=O)[C@H]2CCCC[C@@H]2N)C(N)=O)C1=O)C(=O)NCC(=O)N[C@@H](CCCCNC(=O)CCN1C(=O)CC(SC[C@H](NC(=O)CNC(=O)CNC(=O)[C@H]2CCCC[C@@H]2NC(=O)C[C@H](CC(=O)O)NC(=O)[C@H]2CCCC[C@@H]2NC(=O)[C@H]2CCCC[C@@H]2NC(=O)C[C@H](CCCNC(=N)N)NC(=O)[C@H]2CCCC[C@@H]2N)C(N)=O)C1=O)C(=O)NCC(=O)N[C@@H](CCCCNC(=O)CCN1C(=O)CC(SC[C@H](NC(=O)CNC(=O)CNC(=O)[C@H]2CCCC[C@@H]2NC(=O)C[C@H](CC(=O)O)NC(=O)[C@H]2CCCC[C@@H]2NC(=O)[C@H]2CCCC[C@@H]2NC(=O)C[C@H](CCCNC(=N)N)NC(=O)[C@H]2CCCC[C@@H]2N)C(N)=O)C1=O)C(=O)NCC(=O)N[C@@H](CCCCNC(=O)CCN1C(=O)CC(SC[C@H](NC(=O)CNC(=O)CNC(=O)[C@H]2CCCC[C@@H]2NC(=O)C[C@H](CC(=O)O)NC(=O)[C@H]2CCCC[C@@H]2NC(=O)[C@H]2CCCC[C@@H]2NC(=O)C[C@H](CCCNC(=N)N)NC(=O)[C@H]2CCCC[C@@H]2N)C(N)=O)C1=O)C(N)=O (stereo partly drawn) [Compound 8],–,–,-11.07 kcal/M,2.31 kcal/M,-8.48 kcal/M,0.51 kcal/M
